Source: patent EP0937711A1, “Thiobenzamides, process for their preparation and medicaments containing them” (Roche Diagnostics GmbH, priority 1998, dated 1999)

Tests used:
Citratplasma = experiment: Activated partial thromboplastin time (APTT) in citrate plasma; type: biochemical; conditions: time as difference to control (control ca. 28-35 s); for APTT 1000: 1000 µM in final volume, stopped after 5 min (>300)
Procedure: (§1) Neun Teile frisches Blut gesunder Spender werden mit einem Teil Natriumcitratlösung (0.11 Mol/l) gemischt und bei ca. 3000 U/min 10 Minuten bei Raumtemperatur zentrifugiert. Das Plasma wird abpipettiert und kann bei Raumtemperatur ca. 8 h aufbewahrt werden.
100 µl Citratplasma und 100 µl APTT-Reagenz (Diagnostica Stago / Boehringer Mannheim GmbH; enthält Lyophilisat Cephalin mit mikrokristallinem Kieselguraktivator) werden zusammen mit 10 µl Dimethylsulfoxid (DMSO) oder 10 µl einer Lösung der Wirksubstanz in DMSO in einem Kugelkoagulometer (KC10 der Fa. Amelung) 3 Minuten bei 37°C inkubiert. Mit Zugabe von 100 µl 0.025 M Calciumchlorid-Lösung wird eine Stoppuhr gestartet und der Zeitpunkt bis zum Eintritt der Gerinnung bestimmt. Die APTT beträgt bei den Kontrollmessungen ca. 28 -35 Sekunden und wird durch Wirksubstanzen verlängert. Sofern bei den Messungen nach 5 Minuten keine Gerinnung eintrat, wurde der Versuch gestoppt (>300).
In Tabelle 1 sind die gemessenen APTT-Zeiten in Sekunden als Differenz zur Kontrolle angegeben. Die Konzentrationen der Wirksubstanzen betrugen im Endvolumen 1000 µM (APTT 1000), 100 µM (APTT 100), 10 µM (APTT 10), 1 µM (APTT 1).

humanem Faktor Xa = molecular target: T1, humanem Faktor Xa (Homo sapiens, UniProt P00742); experiment: Inhibition constants (Ki), chromogenic substrate Chromozym X, FXa; type: biochemical; conditions: pH 7.5, 25°C, 0.1 M phosphate buffer
T1 construct: humanem Faktor Xa; purchased Boehringer Mannheim GmbH
T1 sequence (P00742 235-488 limits assumed): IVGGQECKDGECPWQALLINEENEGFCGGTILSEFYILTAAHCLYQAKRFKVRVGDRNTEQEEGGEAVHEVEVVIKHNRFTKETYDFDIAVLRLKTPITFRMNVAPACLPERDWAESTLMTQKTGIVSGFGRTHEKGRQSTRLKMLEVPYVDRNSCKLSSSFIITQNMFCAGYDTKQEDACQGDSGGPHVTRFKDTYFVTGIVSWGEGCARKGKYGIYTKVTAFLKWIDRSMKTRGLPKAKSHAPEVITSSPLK
T1 sequence (P00742 41-179 partner limits assumed): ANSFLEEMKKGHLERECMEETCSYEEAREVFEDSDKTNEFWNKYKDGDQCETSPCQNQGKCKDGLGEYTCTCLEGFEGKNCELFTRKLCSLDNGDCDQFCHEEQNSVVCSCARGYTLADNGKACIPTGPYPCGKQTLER
Procedure: (§2) Die kinetischen Messungen wurden in 0.2 M Kochsalz und 0.5 % Polyethylenglycol 6000 enthaltendem 0.1 M Phosphatpuffer (Herstellung siehe unten) bei pH 7.5 und 25°C in Polystyrol-Halbmikroküvetten in einem Gesamtvolumen von 1 mi durchgeführt. Die Reaktionen wurden durch Zugabe von Enzym zu vorinkubierten Lösungen, die entweder Dimethylsulfoxid (Kontrolle) oder Lösungen der Testsubstanz in DMSO (Inhibitor-Stocklösungen: 10 mM in DMSO) enthielten, gestartet. Die Zunahme der Extinktion bei 405 nm als Folge der Freisetzung von 4-Nitroanilin aus dem Substrat wurde photometrisch über einen Zeitraum von 12 Minuten verfolgt. Im Abstand von 20 Sekunden wurden Meßwerte (Extinktion vs. Zeit) ermittelt und diese Daten per Computer gespeichert.
(§3) Zur Bestimmung der Inhibitionskonstanten Ki wurde wie folgt vorgegangen: Die Geschwindigkeiten V0 (Extinktionsänderung pro Sekunde; Messungen ohne Inhibitor) und Vi (Extinktionsänderung pro Sekunde; Messungen mit Inhibitor) wurden durch lineare Regression bestimmt, wobei nur die Meßpunkte berücksichtigt wurden, bei der sich die Substratkonzentration um weniger als 15% verringerte. Aus einer Meßreihe (konstante Inhibitorkonzentration, variable Substratkonzentrationen) bestimmte man KM und VMAX durch nichtlinearen Fit auf die Gleichung V =(Vmax * [S])/([S] + KM) [formula] […]

[1] = molecular target: T2, bovines pankreatisches Trypsin (Bos taurus, UniProt P00760); experiment: Inhibition constants (Ki), chromogenic substrate S-2238, trypsin; type: biochemical, bovin; conditions: pH 7.5, 25°C, 0.1 M phosphate buffer
T2 construct: purchased Sigma; host or cells: bovine pancreas
T2 sequence (P00760 24-246): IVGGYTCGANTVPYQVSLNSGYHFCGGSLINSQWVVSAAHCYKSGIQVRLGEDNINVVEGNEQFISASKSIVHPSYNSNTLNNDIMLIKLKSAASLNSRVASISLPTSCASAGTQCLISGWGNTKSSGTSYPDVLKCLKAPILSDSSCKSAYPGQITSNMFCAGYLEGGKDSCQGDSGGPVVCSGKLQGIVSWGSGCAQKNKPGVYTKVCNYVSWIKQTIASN
Procedure: as §2, §3

Pferdethrombin = experiment: Thrombin time in citrate plasma; type: biochemical, Pferd; conditions: 500 µM in final volume; time as difference to control (control ca. 24 s)
Procedure: as §1
200 µl Citratplasma werden in einem Kugelkoagulometer (KC10 der Fa. Amelung) 2 Minuten bei 37°C inkubiert. Zu 190 µl vortemperiertem Thrombin-Reagenz (Boehringer Mannheim GmbH; enthält ca. 3 U/ml Pferdethrombin und 0.0125 M Ca^++ gibt man 10 µl Dimethylsulfoxid (DMSO) oder eine Lösung der Wirksubstanz in DMSO. Mit Zugabe dieser 200 µl Lösung zum Plasma wird eine Stoppuhr gestartet und der Zeitpunkt bis zum Eintritt der Gerinnung bestimmt. Die Thrombinzeit beträgt bei den Kontrollmessungen ca. 24 Sekunden und wird durch Wirksubstanzen verlängert. Sofern bei den Messungen nach 5 Minuten keine Gerinnung eintrat, wurde der Versuch gestoppt (>300).
In Tabelle 1 sind die gemessenen Thrombinzeiten in Sekunden als Differenz zur Kontrolle angegeben. Die Konzentrationen der Wirksubstanzen betrugen im Endvolumen 500 µM (TT 500).

Humanes α-Thrombin = molecular target: T3, Humanes α-Thrombin (Homo sapiens, UniProt P00734); experiment: Inhibition constants (Ki), chromogenic substrate S-2238, thrombin; type: biochemical; conditions: pH 7.5, 25°C, 0.1 M phosphate buffer
T3 construct: Humanes α-Thrombin; purchased Sigma
Procedure: as §2, §3

Row | Compound | APTT 1000 (Citratplasma) | other results
1 | COC(=O)c1ccc(NC(=O)c2ccc3ccccc3c2)c(NC(=O)c2ccc(C(N)=S)cc2)c1 [Beispiel 1, 4-[(Naphthalin-2-carbonyl)-amino]-3-(4-thiocarbamoyl-benzoylamino)-benzoesäuremethylester] | 1 s | 
2 | NC(=S)c1ccc(C(=O)Nc2cc(C(=O)O)ccc2NC(=O)c2ccc3ccccc3c2)cc1 [Beispiel 2, 4-[(Naphthalin-2-carbonyl)-amino]-3-(4-thiocarbamoyl-benzoylamino)-benzoesäure] | 9.4 s | 
3 | COc1ccc(C(=O)Nc2ccccc2NC(=O)c2ccc(C(N)=S)cc2)cc1 [Beispiel 3, 2-(4-Methoxy-benzoylamino)-1-(4-thiocarbamoyl-benzoylamino)-benzol] | 157.9 s | Ki (humanem Faktor Xa): 0.05 µM; APTT 1 (Citratplasma; 1 µM in final volume): 2.6 s; APTT 10 (Citratplasma; 10 µM in final volume): 8.4 s; APTT 100 (Citratplasma; 100 µM in final volume): 32.4 s; Ki [1]: > 100 µM; TT 500 (Pferdethrombin): 2.4 s; Ki (Humanes α-Thrombin): > 100 µM
4 | COC(=O)c1ccc(NC(=O)c2ccc(OC)cc2)c(NC(=O)c2ccc(C(N)=S)cc2)c1 [Beispiel 4, 4-(4-Methoxy-benzoylamino)-3-(4-thiocarbamoyl-benzoylamino)-benzoesäuremethylester] | 65.3 s | 
5 | COC(=O)c1ccc(NC(=O)c2ccc(OC)c(OC)c2)c(NC(=O)c2ccc(C(N)=S)cc2)c1 [Beispiel 5, 4-(3,4-Dimethoxy-benzoylamino)-3-(4-thiocarbamoyl-benzoylamino)-benzoesäuremethylester] | 3.5 s | 
6 | COC(=O)c1ccc(NC(=O)c2ccccc2C(=O)O)c(NC(=O)c2ccc(C(N)=S)cc2)c1 [Beispiel 6, 4-(2-Carboxy-benzoylamino)-3-(4-thiocarbamoyl-benzoylamino)-benzoesäuremethylester] | 9.0 s | 
7 | COC(=O)c1ccc(NS(=O)(=O)c2ccc(OC)cc2)c(NC(=O)c2ccc(C(N)=S)cc2)c1 [Beispiel 7, 4-(4-Methoxy-benzolsulfonylamino)-3-(4-thiocarbamoyl-benzoylamino)-benzoesäuremethylester] | 0.8 s | 
8 | COC(=O)c1ccc(NS(=O)(=O)c2ccc3ccccc3c2)c(NC(=O)c2ccc(C(N)=S)cc2)c1 [Beispiel 8, 4-(Naphthalin-2-sulfonylamino)-3-(4-thiocarbamoyl-benzoylamino)-benzoesäuremethylester] | -0.4 s | 
9 | NC(=S)c1ccc(C(=O)Nc2ccccc2NC(=O)c2ccc(C(N)=S)cc2)cc1 [Beispiel 9, 1,2-Bis-(4-thiocarbamoyl-benzoylamino)-benzol] | 6.7 s | 
10 | NC(=S)c1ccc(C(=O)Nc2cc(C(=O)O)ccc2NS(=O)(=O)c2ccc3ccccc3c2)cc1 [Beispiel 10, 4-(Naphthalin-2-sulfonylamino)-3-(4-thiocarbamoyl-benzoylamino)-benzoesäure] | 0.7 s | 
